Source: US8247211B2, “Glycopeptide antibiotics” (American Cyanamid Company, priority 2001, dated 2012)
≈ marks a conversion by molar mass, not a printed value.

Legend:
[1] = Anatomic pathology (heart and kidney histopathology) in mice; format: in vivo, CD-1 mice; details: 20 mg/kg intravenously daily for 9 days, microscopic histopathology on day 10
Experimental: 20-day-old CD-1 mice were divided into a vehicle control group (5 mice) and a treatment group (5 mice). Samples of glycopeptide antibiotics were administered at 20 mg/kg intravenously daily for 9 days.
Samples of tissues from necropsied mice were formalin-fixed, paraffin-embedded, sectioned, stained with hematoxylin and eosin, and examined microscopically. Histopathologic findings were recorded. These findings were subjectively graded on a scale corresponding to slight, mild, moderate, marked and severe as compared to untreated controls.

Escherichia coli = experiment: In vitro antibacterial evaluation: minimum inhibitory concentration (MIC), broth dilution method; format: cell-based; details: strain GC 4560
In short: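 Inoculum: 5×10^5 CFU/mL. Range: 64-0.06 μg/mL. Medium: Muller-Hinton II […]; NCCLS M7-A2 broth dilution. Endpoint: lowest concentration inhibiting growth. Strains include methicillin-, penicillin- and/or vancomycin-resistant clinical isolates.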

Enterococcus sp. = experiment: as above; format: cell-based; details: for MIC Enterococcus faecalis (GC 4553): strain GC 4553; for MIC Enterococcus avium (GC 4558): strain GC 4558
In short: (§1)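 MIC read as lowest drug level preventing visible growth. Organisms at 5×10^5 CFU/mL were exposed to a 64-0.06 μg/mL dilution series in Muller-Hinton II […] following NCCLS broth dilution standard M7-A2.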

Streptococcus sp. = experiment: as above; format: cell-based
In short: as §1

[2] = system: Staphylococcus aureus-SMITH (GC 4543); experiment: Acute lethal infection in mice (ED50); format: in vivo; details: female CD-1 mice, intraperitoneal challenge, intravenous dose 30 min. after infection, 7 day survival ratios
In short: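 Groups of five female CD-1 mice per dose got intravenous antibiotic in saline or 5% dextrose half an hour after intraperitoneal infection sufficient to kill controls within 24-48 hr. Seven-day survival data from three experiments were combined to derive ED50.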

Staphylococcus sp. = experiment: In vitro antibacterial evaluation: minimum inhibitory concentration (MIC), broth dilution method; format: cell-based; details: broth dilution, 18 hours at 35° C.
In short: as §1

[3] = Streptococcus pneumoniae (ATCC 6301), broth dilution, 18 hours at 35° C.
[4] = Streptococcus pneumoniae (GC 1894), broth dilution, 18 hours at 35° C.
[5] = Streptococcus pneumoniae (GC 4565), broth dilution, 18 hours at 35° C.
[6] = Streptococcus pyogenes (GC 4563), broth dilution, 18 hours at 35° C.

SMILES: CC(c1ccccc1)C1NC(=O)CNC(=O)C(CO)NC(=O)C(C(O)C2CN(CCCCCCCCCCC(=O)O)C(=N)N2C2OC(CO)C(O)C(O)C2O)NC(=O)C(C(O)C2CNC(=N)N2)NC(=O)C(Cc2ccc(OC3OC(CO)C(OC4OC(CO)C(O)C(O)C4O)C(O)C3O)cc2)NC1=O (stereo not drawn) [Example 72, Cyclo[glycyl-β-methylphenylalanyl-O-(4-O-hexopyranosylhexopyranosyl)tyrosyl-3-(2-iminoimidazolidin-4-yl)seryl-3-[1-(10-carboxydecyl)-3-hexopyranosyl-2-iminoimidazolidin-4-yl]serylseryl]]
- Anatomical Pathology (Day 10), Heart [1]: 0
- Anatomical Pathology (Day 10), Kidney [1]: ++
- MIC Escherichia coli (GC 4560) (Escherichia coli): 32 µg/mL (≈ 21.6 µM)
- MIC Enterococcus faecalis (GC 4553) (Enterococcus sp.): 64 µg/mL (≈ 43.3 µM)
- MIC Enterococcus avium (GC 4558) (Enterococcus sp.): 64 µg/mL (≈ 43.3 µM)
- MIC Streptococcus pneumoniae (ATCC 6301) (Streptococcus sp.; [3]): 64 µg/mL (≈ 43.3 µM)
- MIC Streptococcus pneumoniae (GC 1894) (Streptococcus sp.; [4]): 16 µg/mL (≈ 10.8 µM)
- MIC Streptococcus pneumoniae (GC 4565) (Streptococcus sp.; [5]): 64 µg/mL (≈ 43.3 µM)
- MIC Streptococcus pyogenes (GC 4563) (Streptococcus sp.; [6]): 64 µg/mL (≈ 43.3 µM)
- MIC Streptococcus pneumoniae (ATCC 6301) (Streptococcus sp.; strain ATCC 6301): 64 µg/mL (≈ 43.3 µM)
- MIC Streptococcus pneumoniae (GC 1894) (Streptococcus sp.; strain GC 1894): 16 µg/mL (≈ 10.8 µM)
- MIC Streptococcus pyogenes (GC 4563) (Streptococcus sp.; strain GC 4563): 64 µg/mL (≈ 43.3 µM)
- MIC Streptococcus pneumoniae (GC 4565) (Streptococcus sp.; strain GC 4565): 64 µg/mL (≈ 43.3 µM)
- median effective dose (ED50), Staphylococcus aureus-SMITH (GC 4543) [2]: >8

SMILES: CC(c1ccccc1)C1NC(=O)CNC(=O)C(CO)NC(=O)C(C(O)C2CN(Cc3ccc(C(C)(C)C)cc3)C(=N)N2C2OC(CO)C(O)C(O)C2O)NC(=O)C(C(O)C2CNC(=N)N2)NC(=O)C(Cc2ccc(OC3OC(CO)C(OC4OC5COC6(OC5C(O)C4O)C4CC5CC(C4)CC6C5)C(O)C3O)cc2)NC1=O (centres unmarked) [Example 77]
- Anatomical Pathology (Day 10), Heart [1]: 0
- Anatomical Pathology (Day 10), Kidney [1]: 0
- MIC Escherichia coli (GC 4560) (Escherichia coli): 4 µg/mL (≈ 2.54 µM)
- MIC Enterococcus faecalis (GC 2242) (Enterococcus sp.; Enterococcus faecalis (GC 2242), broth dilution, 18 hours at 35° C.): 16 µg/mL (≈ 10.2 µM)
- MIC Enterococcus faecalis (GC 2691) (Enterococcus sp.; Enterococcus faecalis (GC 2691), broth dilution, 18 hours at 35° C.): 16 µg/mL (≈ 10.2 µM)
- MIC Enterococcus faecalis (GC 3059) (Enterococcus sp.; Enterococcus faecalis (GC 3059), broth dilution, 18 hours at 35° C.): 16 µg/mL (≈ 10.2 µM)
- MIC Enterococcus faecalis (ATCC 29212) (Enterococcus sp.; strain ATCC 29212): 16 µg/mL (≈ 10.2 µM)
- MIC Enterococcus faecalis (GC 2242) (Enterococcus sp.; strain GC 2242): 16 µg/mL (≈ 10.2 µM)
- MIC Enterococcus faecium (GC 2243) (Enterococcus sp.; strain GC 2243): 8 µg/mL (≈ 5.08 µM)
- MIC Enterococcus faecalis (GC 2691) (Enterococcus sp.; strain GC 2691): 16 µg/mL (≈ 10.2 µM)
- MIC Enterococcus faecalis (GC 3059) (Enterococcus sp.; strain GC 3059): 16 µg/mL (≈ 10.2 µM)
- MIC Enterococcus faecalis (GC 4552) (Enterococcus sp.; strain GC 4552): 16 µg/mL (≈ 10.2 µM)
- MIC Enterococcus faecalis (GC 4553) (Enterococcus sp.): 8 µg/mL (≈ 5.08 µM)
- MIC Enterococcus faecium (GC 4556) (Enterococcus sp.; strain GC 4556): 16 µg/mL (≈ 10.2 µM)
- MIC Enterococcus faecium (GC 4557) (Enterococcus sp.; strain GC 4557): 1 to 2 µg/mL
- MIC Enterococcus avium (GC 4558) (Enterococcus sp.): 4 µg/mL (≈ 2.54 µM)
- MIC Enterococcus faecalis (GC 6189) (Enterococcus sp.; strain GC 6189): 16 µg/mL (≈ 10.2 µM)
- MIC Coagulase Negative Staphylococcus (GC 4547) (Staphylococcus sp.): 4 µg/mL (≈ 2.54 µM)
- MIC Coagulase Negative Staphylococcus (GC 4548) (Staphylococcus sp.): 4 µg/mL (≈ 2.54 µM)
- MIC Coagulase Negative Staphylococcus (GC 4549) (Staphylococcus sp.): 4 to 8 µg/mL
- MIC Coagulase Negative Staphylococcus (GC 4551) (Staphylococcus sp.): 8 µg/mL (≈ 5.08 µM)
- MIC Coagulase Negative Staphylococcus (GC 6257) (Staphylococcus sp.): 2 µg/mL (≈ 1.27 µM)
- MIC Staphylococcus aureus (ATCC 29213) (Staphylococcus sp.): 8 to 16 µg/mL
- MIC Staphylococcus aureus (GC 1131) (Staphylococcus sp.): 16 µg/mL (≈ 10.2 µM)
- MIC Staphylococcus aureus (GC 3051) (Staphylococcus sp.): 8 to 16 µg/mL
- MIC Staphylococcus aureus (GC 3053) (Staphylococcus sp.): 16 µg/mL (≈ 10.2 µM)
- MIC Staphylococcus aureus (GC 4541) (Staphylococcus sp.): 4 to 8 µg/mL
- MIC Staphylococcus aureus (GC 4542) (Staphylococcus sp.): 8 to 16 µg/mL
- MIC Staphylococcus aureus (GC 4544) (Staphylococcus sp.): 16 µg/mL (≈ 10.2 µM)
- MIC Staphylococcus aureus (GC 4545) (Staphylococcus sp.): 8 µg/mL (≈ 5.08 µM)
- MIC Staphylococcus aureus SMITH (GC 4543) (Staphylococcus sp.): 8 µg/mL (≈ 5.08 µM)
- MIC Staphylococcus haemolyticus (GC 4546) (Staphylococcus sp.): 4 to 8 µg/mL
- MIC Staphylococcus aureus-SMITH (GC 4543) (Staphylococcus sp.; strain SMITH GC 4543): 8 µg/mL (≈ 5.08 µM)
- MIC Streptococcus agalactiae (GC 4564) (Streptococcus sp.; Streptococcus agalactiae (GC 4564), broth dilution, 18 hours at 35° C.): 1 µg/mL (≈ 0.635 µM)
- MIC Streptococcus pneumoniae (ATCC 6301) (Streptococcus sp.; [3]): 2 µg/mL (≈ 1.27 µM)
- MIC Streptococcus pneumoniae (GC 4565) (Streptococcus sp.; [5]): 2 to 4 µg/mL
- MIC Streptococcus pyogenes (GC 4563) (Streptococcus sp.; [6]): 1 µg/mL (≈ 0.635 µM)
- MIC Streptococcus pneumoniae (ATCC 6301) (Streptococcus sp.; strain ATCC 6301): 2 µg/mL (≈ 1.27 µM)
- MIC Streptococcus pyogenes (GC 4563) (Streptococcus sp.; strain GC 4563): 1 µg/mL (≈ 0.635 µM)
- MIC Streptococcus agalactiae (GC 4564) (Streptococcus sp.; strain GC 4564): 1 µg/mL (≈ 0.635 µM)
- MIC Streptococcus pneumoniae (GC 4565) (Streptococcus sp.; strain GC 4565): 2 to 4 µg/mL
- median effective dose (ED50), Staphylococcus aureus-SMITH (GC 4543) [2]: 4 mg/kg

SMILES: CC(c1ccccc1)C1NC(=O)CNC(=O)C(CO)NC(=O)C(C(O)C2CN(Cc3ccccc3)C(=N)N2C2OC(CO)C(O)C(O)C2O)NC(=O)C(C(O)C2CNC(=N)N2)NC(=O)C(Cc2ccc(OC3OC(CO)C(OC4OC(CO)C(O)C(O)C4O)C(O)C3O)cc2)NC1=O (stereo not drawn) [Example 59, Cyclo[glycyl-β-methylphenylalanyl-O-(4-O-hexopyranosylhexopyranosyl)tyrosyl-(2-iminoimidazolidin-4-yl)seryl-3-[1-benzyl-3-hexopyranosyl-2-iminoimidazolidin-4-yl]serylseryl]]
- Anatomical Pathology (Day 10), Heart [1]: 0
- Anatomical Pathology (Day 10), Kidney [1]: 0
- MIC Streptococcus pneumoniae (GC 1894) (Streptococcus sp.; [4]): 64 µg/mL (≈ 46.2 µM)
- MIC Streptococcus pneumoniae (GC 1894) (Streptococcus sp.; strain GC 1894): 64 µg/mL (≈ 46.2 µM)
- median effective dose (ED50), Staphylococcus aureus-SMITH (GC 4543) [2]: >8

SMILES: CC(c1ccccc1)C1NC(=O)CNC(=O)C(CO)NC(=O)C(C(O)C2CN(Cc3ccc(-c4ccccc4)cc3)C(=N)N2C2OC(CO)C(O)C(O)C2O)NC(=O)C(C(O)C2CNC(=N)N2)NC(=O)C(Cc2ccc(OC3OC(CO)C(OC4OC(CO)C(O)C(O)C4O)C(O)C3O)cc2)NC1=O (centres unmarked) [Example 66a]
- Anatomical Pathology (Day 10), Heart [1]: 0
- Anatomical Pathology (Day 10), Kidney [1]: ++
- MIC Escherichia coli (GC 4560) (Escherichia coli): 8 µg/mL (≈ 5.47 µM)
- median effective dose (ED50), Staphylococcus aureus-SMITH (GC 4543) [2]: >4
